Laboratory results: the NIST ThermoML archive (doi:10.1016/j.jct.2016.11.009)

Conditions: Gas, Buoyancy - hydrostatic balance with magnetic suspension - one sinker

N#N [nitrogen]
Conditions | mass density [kg/m3]
304.03 K, 17990 kPa | 190.64
304.1 K, 16877 kPa | 180.004
304.11 K, 6796 kPa | 75.316
304.11 K, 12948 kPa | 140.851
304.12 K, 5782 kPa | 64.151
304.13 K, 8812 kPa | 97.213
304.14 K, 4379 kPa | 48.633
304.15 K, 2926 kPa | 32.502
304.15 K, 7820 kPa | 86.489
304.15 K, 11901 kPa | 129.994
304.15 K, 15984 kPa | 171.278
304.16 K, 10861 kPa | 119.075
304.16 K, 14927 kPa | 160.84
304.17 K, 13944 kPa | 150.964
304.23 K, 9837 kPa | 108.209
304.55 K, 2607 kPa | 28.885
304.66 K, 3534 kPa | 39.15
304.66 K, 7983 kPa | 88.017
304.69 K, 7136 kPa | 78.822
304.73 K, 16296 kPa | 173.901
304.75 K, 8937 kPa | 98.306
304.75 K, 12245 kPa | 133.207
304.77 K, 4983 kPa | 55.145
304.77 K, 14270 kPa | 153.864
304.78 K, 10988 kPa | 120.097
304.8 K, 3016 kPa | 33.394
304.82 K, 5885 kPa | 65.065
304.83 K, 8012 kPa | 88.26
304.83 K, 10043 kPa | 110.076
304.88 K, 3013 kPa | 33.353
304.88 K, 18305 kPa | 192.939
304.89 K, 6933 kPa | 76.521
305.04 K, 4986 kPa | 55.132
305.17 K, 4987 kPa | 55.12
